Molecular target: T1, bPGC (Beggiatoa sp. PS, UniProt Z9M4H6XJE9, K200E/D268K/T270G)
T1 construct: triple mutant of human codon-optimized bPAC, C-terminal YFP, expressed in Xenopus oocytes
T1 sequence (Z9M4H6XJE9 4-353 K200E/D268K/T270G): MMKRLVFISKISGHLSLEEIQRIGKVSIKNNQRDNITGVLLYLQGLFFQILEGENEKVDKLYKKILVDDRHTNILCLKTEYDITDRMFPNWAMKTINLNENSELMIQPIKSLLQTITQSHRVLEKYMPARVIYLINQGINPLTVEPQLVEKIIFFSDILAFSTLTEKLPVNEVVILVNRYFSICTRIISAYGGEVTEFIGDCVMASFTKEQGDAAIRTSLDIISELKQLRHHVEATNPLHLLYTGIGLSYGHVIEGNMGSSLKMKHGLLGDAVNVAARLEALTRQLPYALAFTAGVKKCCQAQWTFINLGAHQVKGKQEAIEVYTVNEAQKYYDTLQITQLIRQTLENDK
Assay: cGMP immunoassay, extracts of intact oocytes
Assay type: cell-based
Settings: endogenous GTP, 464 nm light

Nc1nc2c(ncn2[C@@H]2O[C@H](COP(=O)(O)OP(=O)(O)OP(=O)(O)O)[C@@H](O)[C@H]2O)c(=O)[nH]1 [GTP]
cGMP immunoassay, extracts of intact oocytes: bPGC produced at least one cAMP for every four cGMP molecules under in vivo conditions

Reference: article PMC4569695, “Optogenetic manipulation of cGMP in cells and animals by the tightly light-regulated guanylyl-cyclase opsin CyclOp” (Nature Communications, 2015)
